In publication PMC5312968, “Structure, kinetic characterization and subcellular localization of the two ribulose 5-phosphate epimerase isoenzymes from Trypanosoma cruzi” (PLoS ONE, 2017):
Where “and” joins values, the source holds several entries; their conditions need not be identical. Identical values can stand only once.

How the values were obtained:
TcRPE1 = target: T1, TcRPE1 (Trypanosoma cruzi, UniProt Q4DBL0); experiment: coupled enzyme assay (transketolase), spectrophotometric; format: biochemical; details: pH 7.25, 30°C, triethanolamine-HCl, 0.02–2 mM substrate; biphasic kinetics, authors give no constants
T1 construct: gene Tc00.1047053510257.30; full-length ORF of 735 bp, pET-22b(+), C-terminal His6 tag kept, E. coli BL21 codon Plus (DE3), subunit 27 kDa, monomer to octamer mixture
T1 sequence (Q4DBL0 1-244): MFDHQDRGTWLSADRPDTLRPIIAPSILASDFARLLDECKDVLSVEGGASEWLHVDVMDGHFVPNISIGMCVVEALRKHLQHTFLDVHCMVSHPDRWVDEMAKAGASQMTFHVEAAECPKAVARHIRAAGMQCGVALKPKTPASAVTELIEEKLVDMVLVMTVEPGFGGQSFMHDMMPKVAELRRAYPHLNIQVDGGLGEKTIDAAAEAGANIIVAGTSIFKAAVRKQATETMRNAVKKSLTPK

[1] = target: recombinant ribulose-5-phosphate epimerase 2 from Trypanosoma cruzi CL Brener clone (TcRPE2) (Trypanosoma cruzi CL Brener clone); experiment: SEC-MALS; Superose 12 column with in-line multi-angle static and dynamic light scattering (SEC-FPLC-LS), room temperature, 50 mM Tris-HCl pH 7.6, 500 mM NaCl, 0.4 ml/min; mixture of oligomeric species of one protein

## O=C(CO)[C@H](O)[C@H](O)COP(=O)(O)O [D-ribulose-5-phosphate]
TcRPE1
  coupled enzyme assay (transketolase), spectrophotometric: TcRPE1 showed a very complex kinetic pattern to increasing concentrations of Ru5P

## recombinant ribulose-5-phosphate epimerase 2 from Trypanosoma cruzi CL Brener clone (TcRPE2) (enzyme)
[1]
  stoichiometry N: 2 and 4
